Results reported in patent US10208030B2, “GPR119 agonist compounds” (Mankind Pharma Ltd., priority 2016, dated 2019).

What follows are compounds tested against T1, hGPR119 (Homo sapiens, UniProt Q8TDV5) (assay: In vitro cyclic AMP assay (Cisbio HTRF) in CHO-hGPR119 cells). Details: 1 h, cAMP, 1 μM, 60 min, read-out: Induction (% induction at 1 μM).
T1 construct: expressed in transfected cells; host or cells: CHO cells (CHO-hGPR119)
T1 sequence (Q8TDV5 1-335): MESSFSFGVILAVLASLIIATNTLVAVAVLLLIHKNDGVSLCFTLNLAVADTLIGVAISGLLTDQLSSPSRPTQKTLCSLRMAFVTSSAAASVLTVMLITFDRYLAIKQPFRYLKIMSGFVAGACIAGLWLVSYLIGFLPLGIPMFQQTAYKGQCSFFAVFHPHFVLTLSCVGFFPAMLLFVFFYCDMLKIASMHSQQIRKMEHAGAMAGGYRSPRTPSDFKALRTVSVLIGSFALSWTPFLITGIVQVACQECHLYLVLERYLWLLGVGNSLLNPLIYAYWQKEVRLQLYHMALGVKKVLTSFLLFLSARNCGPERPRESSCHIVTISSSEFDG
Assay type: cell-based
Method: cAMP measurements were done using Cisbio dynamic 2 HTRF kit according to the manufacturer's protocol. Briefly, CHO-hGPR119 cells were plated at a cell density of 5000 cells/well/5 μl into a white small volume 384 well plate. The final concentrations of IBMX and DMSO used were 1 mM and 0.5% respectively. Cells were treated with various concentrations of the test compound for 60 min at room temperature. Cells were lysed by buffer containing Anti-cAMP antibody and d2-cAMP reagents and incubated for 1 hour at room temperature. HTRF was measured at 337 nm excitation and emission wavelengths of 665 nm and 620 nm on a microplate reader (Flurostar, BMG Labtech). Graphpad prism software was utilized for EC50 determinations.

In order of falling activation at 1 µM:
1. CC(C)c1noc(N2CCC(C(C)Oc3nn4cc(-c5cnc(Cl)cn5)nc4s3)CC2)n1 (stereo not drawn) [Compound 1079, 2-(1-(1-(3-isopropyl-1,2,4-oxadiazol-5-yl)piperidin-4-yl)ethoxy)-6-(5-chloropyrazin-2-yl)imidazo[2,1-b][1,3,4]thiadiazole]  87%
2. CCCc1cnc(N2CCC([C@H](C)Oc3nn4cc(-c5ccncc5F)nc4s3)CC2)nc1 [Compound 1082, 2-((S)-1-(1-(5-propylpyrimidin-2-yl)piperidin-4-yl)ethoxy)-6-(3-fluoropyridin-4-yl)imidazo[2,1-b][1,3,4]thiadiazole]  80%
3. C[C@H](Oc1nn2cc(-c3ccc(S(C)(=O)=O)cc3)nc2s1)C1CCN(c2ncc(Cl)cn2)CC1 [Compound 1083, 2-((S)-1-(1-(5-chloropyrimidin-2-yl)piperidin-4-yl)ethoxy)-6-(4-(methylsulfonyl)phenyl)imidazo[2,1-b][1,3,4]thiadiazole]  77%
4. CC(Oc1nn2cc(-c3ccc(S(C)(=O)=O)cc3)nc2s1)C1CCN(c2ncc(Cl)cn2)CC1 (stereo not drawn) [Compound 1069, 2-(1-(1-(5-chloropyrimidin-2-yl)piperidin-4-yl)ethoxy)-6-(4-(methylsulfonyl)phenyl)imidazo[2,1-b][1,3,4]thiadiazole]  65%
5. CC(C)c1noc(N2CCC(C(C)Oc3nn4cc(-c5ccc(Cl)nc5)nc4s3)CC2)n1 (stereo not drawn) [Compound 1075, 2-(1-(1-(3-isopropyl-1,2,4-oxadiazol-5-yl)piperidin-4-yl)ethoxy)-6-(6-chloropyridin-3-yl)imidazo[2,1-b][1,3,4]thiadiazole]  64%
6. CC(C)c1cnc(N2CCC(C(C)Oc3nn4cc(-c5ccc(S(C)(=O)=O)cc5)nc4s3)CC2)nc1 (stereo not drawn) [Compound 1070, 2-(1-(1-(5-isopropylpyrimidin-2-yl)piperidin-4-yl)ethoxy)-6-(4-(methylsulfonyl)phenyl)imidazo[2,1-b][1,3,4]thiadiazole]  55%
7. CC(C)c1noc(N2CCC([C@H](C)Oc3nn4cc(-c5ccc(S(C)(=O)=O)c(F)c5)nc4s3)CC2)n1 [Compound 1078, 2-((S)-1-(1-(3-isopropyl-1,2,4-oxadiazol-5-yl)piperidin-4-yl)ethoxy)-6-(3-fluoro-4-(methylsulfonyl)phenyl)imidazo[2,1-b][1,3,4]thiadiazole]  54%
8. CC(C)c1noc(N2CCC(C(C)Oc3nn4cc(-c5cnc(S(C)(=O)=O)nc5)nc4s3)CC2)n1 (stereo not drawn) [Compound 1074, 2-(1-(1-(3-isopropyl-1,2,4-oxadiazol-5-yl)piperidin-4-yl)ethoxy)-6-(2-(methylsulfonyl)pyrimidin-5-yl)imidazo[2,1-b][1,3,4]thiadiazole]  44%
9. CC(Oc1nn2cc(-c3ccc(S(C)(=O)=O)cc3)nc2s1)C1CCN(c2nc(C(F)(F)F)no2)CC1 (stereo not drawn) [Compound 1073, 2-(1-(1-(3-(trifluoromethyl)-1,2,4-oxadiazol-5-yl)piperidin-4-yl)ethoxy)-6-(4-(methylsulfonyl)phenyl)imidazo[2,1-b][1,3,4]thiadiazole]  33%
10. C[C@H](Oc1nn2cc(-c3ccc(S(C)(=O)=O)cc3)nc2s1)C1CCN(c2nc(C(F)(F)F)no2)CC1 [Compound 1077, 2-((S)-1-(1-(3-(trifluoromethyl)-1,2,4-oxadiazol-5-yl)piperidin-4-yl)ethoxy)-6-(4-(methylsulfonyl)phenyl)imidazo[2,1-b][1,3,4]thiadiazole]  33%
11. C[C@@H](Oc1nn2cc(-c3ccc(S(C)(=O)=O)cc3)nc2s1)C1CCN(c2nc(C(F)(F)F)no2)CC1 [Compound 1076, 2-((R)-1-(1-(3-(trifluoromethyl)-1,2,4-oxadiazol-5-yl)piperidin-4-yl)ethoxy)-6-(4-(methylsulfonyl)phenyl)imidazo[2,1-b][1,3,4]thiadiazole]  15%

Same assay, conditions: cAMP, class symbols, legend not given

With `CC(Oc1nn2cc(-c3ccc(S(C)(=O)=O)cc3)nc2s1)C1CCN(c2ncc(Cl)cn2)CC1` (stereo not drawn) [Compound 1069, 2-(1-(1-(5-chloropyrimidin-2-yl)piperidin-4-yl)ethoxy)-6-(4-(methylsulfonyl)phenyl)imidazo[2,1-b][1,3,4]thiadiazole] the EC50 was “A+”.
